From patent US20220267352A1, “RAPAMYCIN ANALOGS AND USES THEREOF” (Anakuria Therapeutics, Inc., priority 2021, published 2022)
pIC50: −log10 of the molar value.

Columns and labels:
[1] = tested on: p-Akt 1/2/3 (Ser473) in MCF-7 cells; assay: AlphaLISA Ultra pAKT assay; type: cell-based; conditions: Homo sapiens, 1.5 h; MCF7 cells, 90 min
Description: Example 56: AlphaLISA Ultra pAKT Assay
Assay Protocol: • 1. MCF-7 cells in Corning 3701 plate and incubate for 20˜24 hour. 16,000˜20,000 cells will be seeded in 36 μL medium per well. • 2. Change the culture medium with fresh medium and incubate for another 90 minutes. • 3. Add 12 μL (4×) compounds into the cell plate by HAMILTON. Final DMSO concentration is 0.5%. […] Aspirate 38 μL by HAMILTON, 10 μL rest per well. • 5. Add 10 μL 2× lysis buffer using HAMILTON; total volume in wells is 20 μL. Allow cells to shake for 30 min. Cover plate by plastic foil and store plate at −80° C. up to analysis. • 6. Thaw cell lysate at RT and transfer 10 μL lysate to assay plate (Optiplate-384). • 7. Add 5 μL acceptor beads into assay plate and incubation for 2 hours • 8. Add 5 μL donor beads and incubation for 2 hours • 9. Count the plate by EnSpire Multimode Plate Reader

[2] = tested on: p-p70 S6 Kinase (Thr389) in MCF-7 cells; assay: AlphaLISA Ultra pS6K1 assay; type: cell-based; conditions: Homo sapiens, 1.5 h; MCF7 cells, 90 min
Description: Example 55: AlphaLISA Ultra pS6K1 Assay
Assay Protocol: • 1. Seed MCF-7 cells in Corning 3701 plate and incubate for 20˜24 hour. 12,000˜16,000 cells will be seeded in 36 μL medium per well. • 2. Change the culture medium with fresh medium and incubate for another 2 hours. • 3. Add 12 μL (4×) compounds into the cell plate by HAMILTON. Final DMSO concentration is 0.5%. Incubate for 90 minutes. • 4. Aspirate 38 μL by HAMILTON, 10 μL rest per well. • 5. Add 10 μL 2× lysis buffer using HAMILTON; total volume in wells is 20 μL. Allow cells to shake for 30 min. Cover plate by plastic foil and store plate at −80° C. up to analysis. • 6. Thaw cell lysate at RT and transfer 10 μL lysate to assay plate (Optiplate-384). • 7. Add 5 μL acceptor beads into assay plate and incubation for 2 hours • 8. Add 5 μL donor beads and incubation for 2 hours • 9. Count the plate by EnSpire Multimode Plate Reader

| SMILES | pIC50 [1] | pIC50 [2] |
| --- | --- | --- |
| CO[C@@H]1/C(C)=C/[C@@H](C)C(=O)C[C@@H]([C@H](C)C[C@@H]2CC[C@@H](OP(C)(C)=O)[C@H](OC)C2)OC(=O)[C@@H]2CCCCN2C(=O)C(=O)[C@]2(O)O[C@@H](CC[C@H]2C)CC(OCC2COCCO2)/C(C)=C/C=C/C=C/[C@@H](C)C[C@@H](C)C(=O)[C@@H]1OC (stereo partly drawn) [I-24, (1R,2R,4S)-4-((2R)-2-((3S,6R,7E,9R,10R,12R,14S,15E,17E,19E,23S,26R,27R,34aS)-21-((1,4-dioxan-2-yl)methoxy)-27-hydroxy-9,10-dimethoxy-6,8,12,14,20,26-hexamethyl-1,5,11,28,29-pentaoxo-1,4,5,6,9,10,11,12,13,14,21,22,23,24,25,26,27,28,29,31,32,33,34,34a-tetracosahydro-3H-23,27-epoxypyrido[2,1-c][1]oxa[4]azacyclohentriacontin-3-yl)propyl)-2-methoxycyclohexyl dimethylphosphinate] | ≤ 6.00 | – |
| COCCO[C@@H]1CC[C@@H](C[C@@H](C)[C@@H]2CC(=O)[C@H](C)/C=C(\C)[C@@H](O)[C@@H](OC)C(=O)[C@H](C)C[C@H](C)/C=C/C=C/C=C(\C)[C@H](OC[C@H]3COCCO3)C[C@@H]3CC[C@@H](C)[C@@](O)(O3)C(=O)C(=O)N3CCCC[C@H]3C(=O)O2)C[C@H]1OC [I-63, (1R,9S,12S,15R,16E,18R,19R,21R,23S,24E,26E,28E,30R,32S,35R)-30-[[(2R)-1,4-dioxan-2-yl]methoxy]-1,18-dihydroxy-19-methoxy-12-[(1R)-2-[(1S,3R,4R)-3-methoxy-4-(2-methoxyethoxy)cyclohexyl]-1-methyl-ethyl]-15,17,21,23,29,35-hexamethyl-11,36-dioxa-4-azatricyclo[30.3.1.0^4,9]hexatriaconta-16,24,26,28-tetraene-2,3,10,14,20-pentone] | – | 8.00 to 9.00 |
| COCCO[C@@H]1CC[C@@H](C[C@@H](C)[C@@H]2CC(=O)[C@H](C)/C=C(\C)[C@@H](O)[C@@H](OC)C(=O)[C@H](C)C[C@H](C)/C=C/C=C/C=C(\C)[C@H](OC[C@@H]3COCCO3)C[C@@H]3CC[C@@H](C)[C@@](O)(O3)C(=O)C(=O)N3CCCC[C@H]3C(=O)O2)C[C@H]1OC [I-65, (1R,9S,12S,15R,16E,18R,19R,21R,23S,24E,26E,28E,30R,32S,35R)-30-[[(2S)-1,4-dioxan-2-yl]methoxy]-1,18-dihydroxy-19-methoxy-12-[(1R)-2-[(1S,3R,4R)-3-methoxy-4-(2-methoxyethoxy)cyclohexyl]-1-methyl-ethyl]-15,17,21,23,29,35-hexamethyl-11,36-dioxa-4-azatricyclo[30.3.1.0^4,9]hexatriaconta-16,24,26,28-tetraene-2,3,10,14,20-pentone] | – | 8.00 to 9.00 |
| CO[C@@H]1C[C@H](C[C@@H](C)[C@@H]2CC(=O)[C@H](C)/C=C(\C)[C@@H](O)[C@@H](OC)C(=O)[C@H](C)C[C@H](C)/C=C/C=C/C=C(\C)C(OCc3cnccn3)C[C@@H]3CC[C@@H](C)[C@@](O)(O3)C(=O)C(=O)N3CCCC[C@H]3C(=O)O2)CC[C@H]1OCCO (stereo partly drawn) [I-67, (1R,9S,12S,15R,16E,18R,19R,21R,23S,24E,26E,28E,32S,35R)-1,18-dihydroxy-12-[(1R)-2-[(1S,3R,4R)-4-(2-hydroxyethoxy)-3-methoxy-cyclohexyl]-1-methyl-ethyl]-19-methoxy-15,17,21,23,29,35-hexamethyl-30-(pyrazin-2-ylmethoxy)-11,36-dioxa-4-azatricyclo[30.3.1.0^4,9]hexatriaconta-16,24,26,28-tetraene-2,3,10,14,20-pentone] | – | > 9.00 |
| COCCO[C@@H]1CC[C@@H](C[C@@H](C)[C@@H]2CC(=O)[C@H](C)/C=C(\C)[C@@H](O)[C@@H](OC)C(=O)[C@H](C)C[C@H](C)/C=C/C=C/C=C(\C)C(OCc3cnccn3)C[C@@H]3CC[C@@H](C)[C@@](O)(O3)C(=O)C(=O)N3CCCC[C@H]3C(=O)O2)C[C@H]1OC (stereo partly drawn) [I-68, (1R,9S,12S,15R,16E,18R,19R,21R,23S,24E,26E,28E,32S,35R)-1,18-dihydroxy-19-methoxy-12-[(1R)-2-[(1S,3R,4R)-3-methoxy-4-(2-methoxyethoxy)cyclohexyl]-1-methyl-ethyl]-15,17,21,23,29,35-hexamethyl-30-(pyrazin-2-ylmethoxy)-11,36-dioxa-4-azatricyclo[30.3.1.0^4,9]hexatriaconta-16,24,26,28-tetraene-2,3,10,14,20-pentone] | – | > 9.00 |
| CO[C@@H]1C[C@H](C[C@@H](C)[C@@H]2CC(=O)[C@H](C)/C=C(\C)[C@@H](O)[C@@H](OC)C(=O)[C@H](C)C[C@H](C)/C=C/C=C/C=C(\C)[C@H](OCCOC3COC3)C[C@@H]3CC[C@@H](C)[C@@](O)(O3)C(=O)C(=O)N3CCCC[C@H]3C(=O)O2)CC[C@H]1O [I-71, (1R,9S,12S,15R,16E,18R,19R,21R,23S,24E,26E,28E,30R,32S,35R)-1,18-dihydroxy-12-[(1R)-2-[(1S,3R,4R)-4-hydroxy-3-methoxy-cyclohexyl]-1-methyl-ethyl]-19-methoxy-15,17,21,23,29,35-hexamethyl-30-[2-(oxetan-3-yloxy)ethoxy]-11,36-dioxa-4-azatricyclo[30.3.1.0^4,9]hexatriaconta-16,24,26,28-tetraene-2,3,10,14,20-pentone] | – | 8.00 to 9.00 |
| CO[C@@H]1C[C@H](C[C@@H](C)[C@@H]2CC(=O)[C@H](C)/C=C(\C)[C@@H](O)[C@@H](OC)C(=O)[C@H](C)C[C@H](C)/C=C/C=C/C=C(\C)[C@@H](OCCOC3COC3)C[C@@H]3CC[C@@H](C)[C@@](O)(O3)C(=O)C(=O)N3CCCC[C@H]3C(=O)O2)CC[C@H]1O [I-72, (1R,9S,12S,15R,16E,18R,19R,21R,23S,24E,26E,28E,30S,32S,35R)-1,18-dihydroxy-12-[(1R)-2-[(1S,3R,4R)-4-hydroxy-3-methoxy-cyclohexyl]-1-methyl-ethyl]-19-methoxy-15,17,21,23,29,35-hexamethyl-30-[2-(oxetan-3-yloxy)ethoxy]-11,36-dioxa-4-azatricyclo[30.3.1.0^4,9]hexatriaconta-16,24,26,28-tetraene-2,3,10,14,20-pentone] | – | > 9.00 |
| CO[C@@H]1/C(C)=C/[C@@H](C)C(=O)C[C@@H]([C@H](C)C[C@@H]2CC[C@@H](OP(C)(C)=O)[C@H](OC)C2)OC(=O)[C@@H]2CCCCN2C(=O)C(=O)[C@]2(O)O[C@@H](CC[C@H]2C)CC(OCCOCCOC2COC2)/C(C)=C/C=C/C=C/[C@@H](C)C[C@@H](C)C(=O)[C@@H]1OC (stereo partly drawn) [I-73, (1R,9S,12S,15R,16E,18R,19R,21R,23S,24E,26E,28E,32S,35R)-12-[(1R)-2-[(1S,3R,4R)-4-dimethylphosphoryloxy-3-methoxy-cyclohexyl]-1-methyl-ethyl]-1-hydroxy-18,19-dimethoxy-15,17,21,23,29,35-hexamethyl-30-[2-[2-(oxetan-3-yloxy)ethoxy]ethoxy]-11,36-dioxa-4-azatricyclo[30.3.1.04,9]hexatriaconta-16,24,26,28-tetraene-2,3,10,14,20-pentone] | – | 7.00 to 8.00 |
| CO[C@@H]1/C(C)=C/[C@@H](C)C(=O)C[C@@H]([C@H](C)C[C@@H]2CC[C@@H](OCCO)[C@H](OC)C2)OC(=O)[C@@H]2CCCCN2C(=O)C(=O)[C@]2(O)O[C@@H](CC[C@H]2C)CC(OCCOC2COC2)/C(C)=C/C=C/C=C/[C@@H](C)C[C@@H](C)C(=O)[C@@H]1OC (stereo partly drawn) [I-87, (3S,6R,7E,9R,10R,12R,14S,15E,17E,19E,23S,26R,27R,34aS)-27-hydroxy-3-((R)-1-((1S,3R,4R)-4-(2-hydroxyethoxy)-3-methoxycyclohexyl)propan-2-yl)-9,10-dimethoxy-6,8,12,14,20,26-hexamethyl-21-(2-(oxetan-3-yloxy)ethoxy)-9,10,12,13,14,21,22,23,24,25,26,27,32,33,34,34a-hexadecahydro-3H-23,27-epoxypyrido[2,1-c][1]oxa[4]azacyclohentriacontine-1,5,11,28,29(4H,6H,31H)-pentaone] | ≤ 6.00 | – |
